Results reported in US6495588B2, “Scytonemin and methods of using thereof” (The Regents of the University of California, priority 2000, dated 2002).

Columns and labels:
Jurkat T cells = test: Apoptosis assay (TUNEL, flow cytometry); type: cell-based; details: 3 μM, 24 hours
Description: To determine the mechanism behind the ability of SCY to inhibit cell proliferation, about 2×10^5 Jurkat T cells/ml were treated with vehicle (negative control), 3 μM SCY, or 3 μM camptothecin (positive control) a (0.1% DMSO[final]) and incubated at 37° C., 5% CO2 for 24 hours. As a positive control, camptothecin, a DNA topoisomerase inhibitor, was used because of its ability to arrest Jurkat cells at the G2/M phase of the cell cycle and induce the cells to undergo apoptosis. The cells were fixed in 1% paraformaldehyde, washed once with PBS, and stored in 70% EtOH at−20° C. Apoptosis was measured using the Promega Apoptosis Detection System (Promega, Madison, Wis.) an adapted TUNEL staining method.
The cells were washed two times with 5 ml PBS 2% FBS, then transferred to a microcentrifuge tube in 1 ml PBS, 0.2% Triton×100, 5 mg/ml BSA and incubated on ice for 5 minutes. Samples were spun, PBS solution removed, then resuspended in 80 μl equilibration buffer from Promega kit and incubated at room temperature for 10 minutes. Then the samples were spun and the equilibration buffer removed. A nucleotide mix comprising 45 μl equilibration buffer, 5 μl nucleotide mix, 1 μl Tdt enzyme per sample, was used to resuspend each sample in the dark. The cells were incubated in the dark at 37° C. for 1 hour. The reaction was terminated by the addition of 20 mM EDTA. The samples were washed twice with 1 ml RNAse A and a small aliquot, about 50 μl, was viewed under a microscope. Cells were stained with fluoroscein and then counterstained with propidium iodide and analyzed for DNA content and fragmentation using a Becton-Dickinson FacsSort (Becton-Dickinson, San Jose, Calif.).

[1] = tested on: PMA-induced cell proliferation in mouse ear epidermis; test: Mouse ear cell proliferation assay (IUdR incorporation, PCNA histology); type: in vivo; details: +PMA 4 μg/ear; scytonemin 1 mg/ear, dexamethasone 0.15 mg/ear
Description: To determine the efficacy of scytonemin as an anti-proliferative agent in vivo, the following assay was conducted. On day one, test compounds were delivered in 10 μl 20% DMSO, 80% acetone and applied to both the inner and outer pinnae of left ears (20 μl total) of male, Swiss Webster mice (Taconic Farms, Germantown, N.Y.). The right ears received only vehicle. One hour post test compound application, 4 μg/ear PMA (Sigma, St. Louis, Mo.) in 10 μl acetone was applied to the inner pinnae of each left ear and 10 μl acetone was applied to each right ear. Four hours post test compound application, the each test compound was again applied in the same manner. On day two, the test compounds were applied twice with a four-hour interval between each application. On day three, the test compounds and PMA were applied as they had been on day one.
One hour after the final test compound applications, each mouse was injected with 0.6 ml of a solution containing the thymidine analogue, 5-iodo-I^125-2′-deoxyuridine (IUdR) (2 μCi-I^125/mouse) and, to inhibit the endogenous deoxythymidilic acid synthetase, fluorodeoxyuridine (FUdR) ([…]). This IUdR/FUdR solution was made up in RPMI 1640 media. Eighteen hours post injection, the mice were euthanized via CO2 inhalation, the ears were excised and soaked individually in a 70% EtOH solution overnight.
IUdR incorporation was then measured using a Beckman Gamma counter, Model 5500B. […] Therefore, scytoneman compounds may be used to reduce, prevent, inhibit, modulate, or attenuate cell proliferation.
Additionally, immunostaining with Proliferating Cell Nuclear Antigen (PCNA) was used as a proliferation marker to identify proliferating cells. PCNA is a cofactor for DNAt […]. Expression levels of PCNA fluctuate over the cell cycle. […] Low expression levels of PCNA indicate non-cycling cells.
Histological analysis was used to determine the effect of scytonemin on the thickness of the epidermal layer of skin, the mitotic index of cells in the epidermal layer, the number of cells in the epidermis, and the amount of immune cell infiltration. PCNA antibodies were used to detect the presence of PCNA in cells and a peroxidase-Ni/DAB development system was used to stain PCNA-positive cells black and hematoxlin was used as a nuclear blue counterstain using conventional methods.

Row | SMILES | cells induced to undergo apoptosis (Jurkat T cells) [%] | effect on cell cycle progression (Jurkat T cells) | cells actively proliferating (PCNA staining) [1]
1 | CC[C@@]1(O)C(=O)OCc2c1cc1n(c2=O)Cc2cc3ccccc3nc2-1 [camptothecin, reference compound] | 71 | arrested the cells at G2/M phase | –
2 | C[C@@H]1C[C@H]2[C@@H]3CCC4=CC(=O)C=C[C@]4(C)[C@@]3(F)[C@@H](O)C[C@]2(C)[C@@]1(O)C(=O)CO [dexamethasone, reference compound] | – | – | about 60%
